Laboratory results published in patent publication US20250270191A1, “QUINOLONE BCL6 BIFUNCTIONAL DEGRADERS” (Treeline Biosciences, Inc., priority 2022, published 2025).

Molecular target: T1, Human BCL6 protein (N-terminal HiBiT tagged BCL6 in HT1080 cells) (Homo sapiens, UniProt P41182+Q96SW2)
T1 construct: Human BCL6 protein coding open reading frame; expressed in transfected cells; host or cells: HT1080 (ATCC CCL-121), stably transduced with lentivirus pLV-UBC-N-HiBiT-BCL6-PGK-puro
Experiment: HiBiT based BCL6 degradation assay
Type: cell-based
Conditions: HT1080 cells expressing N-terminal HiBiT tagged BCL6; 5 hours incubation; BCL6 degradation normalized with DMSO control
Text: Human BCL6 protein coding open reading frame fused with N-terminal HiBiT coding sequence was synthesized from Integrated DNA Technologies (IDT). Next, the N-HiBiT-BCL6 sequence was cloned into pLV-UBC-PGK-Puro, a lentivirus plasmid purchased from Vectorbuilder, to generate pLV-UBC-N-HiBiT-BCL6-PGK-puro. Lentiviral particles were generated from Lenti-X™ 293T cells (Clontech) by co-transfection of pLV-UBC-N-HiBiT-BCL6-PGK-puro plasmids and lentiviral packaging plasmid mix (Cellecta). HT1080 [HT1080] (ATCC CCL-121) cells were infected with the lentivirus, and HT1080 cells stably integrated with the lentiviral vectors were established by incubation with 1 μg/mL puromycin (Thermofisher).
HT1080 cells expressing N-terminal HiBiT tagged BCL6 were dispensed into a 384-well plate pre-spotted with compounds at varying concentrations. Five thousand cells were seeded into each well in 40 μL of RPMI 1640 media plus 10% Fetal Bovine Serum (10082-147, Thermofisher). After 5 hours of incubation at 37° C. with 5% CO2, 30 μL of the NANO-GLO® HiBiT Lytic Detection System working solution (Promega) was added to each well and incubated at room temperature for 15 min. After incubation, luminescence was read on a PHERAstar FSX Plate Reader (BMG). BCL6 degradation at each indicated concentration was normalized with DMSO control. The BCL6 degradation curves were plotted using a four-parameter logistic model.

Row | Ymin (5 hr) | Structure (SMILES)
1 | +++ (25% < Ymin ≤ 50%) | CNC(=O)COc1cc2cc(Nc3nc(N4CCN(CC5CCN(C(=O)c6cccc7c(C8CCC(=O)NC8=O)nn(C)c67)CC5)CC4)ncc3Cl)ccc2n(C)c1=O (stereo not shown) [Compound 323, 2-((6-((5-chloro-2-(4-((1-(3-(2,6-dioxopiperidin-3-yl)-1-methyl-1H-indazole-7-carbonyl)piperidin-4-yl)methyl)piperazin-1-yl)pyrimidin-4-yl)amino)-1-methyl-2-oxo-1,2-dihydroquinolin-3-yl)oxy)-N-methylacetamide]
2 | ++++ (Ymin ≤ 25%) | CC(=O)COc1cc2cc(Nc3nc(N4CCN(CC5CCN(c6cccc7c(C8CCC(=O)NC8=O)nn(C)c67)CC5)[C@@H](C)C4)ncc3Cl)ccc2n(C)c1=O (stereo partly drawn) [Compound 347a, 3-(7-(4-(((S)-4-(5-chloro-4-((1-methyl-2-oxo-3-(2-oxopropoxy)-1,2-dihydroquinolin-6-yl)amino)pyrimidin-2-yl)-2-methylpiperazin-1-yl)methyl)piperidin-1-yl)-1-methyl-1H-indazol-3-yl)piperidine-2,6-dione]
3 | ++++ (Ymin ≤ 25%) | CNC(=O)COc1cc2cc(Nc3nc(N4CCC(C(=O)N5CCN(c6cccc7c(C8CCC(=O)NC8=O)nn(C)c67)CC5)CC4)ncc3Cl)ccc2n(C)c1=O (stereo not shown) [Compound 327, 2-((6-((5-chloro-2-(4-(4-(3-(2,6-dioxopiperidin-3-yl)-1-methyl-1H-indazol-7-yl)piperazine-1-carbonyl)piperidin-1-yl)pyrimidin-4-yl)amino)-1-methyl-2-oxo-1,2-dihydroquinolin-3-yl)oxy)-N-methylacetamide]
4 | +++ (25% < Ymin ≤ 50%) | CNC(=O)COc1cc2cc(Nc3nc(N4CCC(CN5CCN(C(=O)c6cccc7c(C8CCC(=O)NC8=O)nn(C)c67)CC5)CC4)ncc3Cl)ccc2n(C)c1=O (stereo not shown) [Compound 324, 2-((6-((5-chloro-2-(4-((4-(3-(2,6-dioxopiperidin-3-yl)-1-methyl-1H-indazole-7-carbonyl)piperazin-1-yl)methyl)piperidin-1-yl)pyrimidin-4-yl)amino)-1-methyl-2-oxo-1,2-dihydroquinolin-3-yl)oxy)-N-methylacetamide]
5 | ++++ (Ymin ≤ 25%) | CNC(=O)COc1cc2cc(Nc3nc(N4CCC(CN5CCN(c6ccc7c(C8CCC(=O)NC8=O)nn(C)c7c6)CC5)CC4)ncc3Cl)ccc2n(C)c1=O (stereo not shown) [Compound 334, 2-((6-((5-chloro-2-(4-((4-(3-(2,6-dioxopiperidin-3-yl)-1-methyl-1H-indazol-6-yl)piperazin-1-yl)methyl)piperidin-1-yl)pyrimidin-4-yl)amino)-1-methyl-2-oxo-1,2-dihydroquinolin-3-yl)oxy)-N-methylacetamide]
6 | ++ (50% < Ymin ≤ 70%) | CNC(=O)COc1cc2cc(Nc3nc(N4CCCC5(CN(c6ccc7c(C8CCC(=O)NC8=O)nn(C)c7c6)C5)C4)ncc3Cl)ccc2n(C)c1=O (stereo not shown) [Compound 329, 2-((6-((5-chloro-2-(2-(3-(2,6-dioxopiperidin-3-yl)-1-methyl-1H-indazol-6-yl)-2,6-diazaspiro[3.5]nonan-6-yl)pyrimidin-4-yl)amino)-1-methyl-2-oxo-1,2-dihydroquinolin-3-yl)oxy)-N-methylacetamide]
7 | +++ (25% < Ymin ≤ 50%) | CNC(=O)COc1cc2cc(Nc3nc(N4CCC(CC5CN(c6cccc7c(C8CCC(=O)NC8=O)nn(C)c67)C5)CC4)ncc3Cl)ccc2n(C)c1=O (stereo not shown) [Compound 310, 2-((6-((5-chloro-2-(4-((1-(3-(2,6-dioxopiperidin-3-yl)-1-methyl-1H-indazol-7-yl)azetidin-3-yl)methyl)piperidin-1-yl)pyrimidin-4-yl)amino)-1-methyl-2-oxo-1,2-dihydroquinolin-3-yl)oxy)-N-methylacetamide]
8 | +++ (25% < Ymin ≤ 50%) | CNC(=O)COc1cc2cc(Nc3nc(N4CC5(CCC(Nc6cccc7c(C8CCC(=O)NC8=O)nn(C)c67)CC5)C4)ncc3Cl)ccc2n(C)c1=O (stereo not shown) [Compound 342, 2-((6-((5-chloro-2-(7-((3-(2,6-dioxopiperidin-3-yl)-1-methyl-1H-indazol-7-yl)amino)-2-azaspiro[3.5]nonan-2-yl)pyrimidin-4-yl)amino)-1-methyl-2-oxo-1,2-dihydroquinolin-3-yl)oxy)-N-methylacetamide]
9 | ++ (50% < Ymin ≤ 70%) | CNC(=O)COc1cc2cc(Nc3nc(NCc4ccc(CNc5ccc6c(C7CCC(=O)NC7=O)nn(C)c6c5)cc4)ncc3Cl)ccc2n(C)c1=O (stereo not shown) [Compound 315, 2-((6-((5-chloro-2-((4-(((3-(2,6-dioxopiperidin-3-yl)-1-methyl-1H-indazol-6-yl)amino)methyl)benzyl)amino)pyrimidin-4-yl)amino)-1-methyl-2-oxo-1,2-dihydroquinolin-3-yl)oxy)-N-methylacetamide]

The remaining lines, values behind:

Row | Structure (SMILES) | Ymin (5 hr)
10 | CNC(=O)COc1cc2cc(Nc3nc(NC[C@H]4CC[C@H](CNc5ccc6c(C7CCC(=O)NC7=O)nn(C)c6c5)CC4)ncc3Cl)ccc2n(C)c1=O (stereo partly shown) [Compound 293b, 2-((6-((5-chloro-2-((((1r,4r)-4-(((3-(2,6-dioxopiperidin-3-yl)-1-methyl-1H-indazol-6-yl)amino)methyl)cyclohexyl)methyl)amino)pyrimidin-4-yl)amino)-1-methyl-2-oxo-1,2-dihydroquinolin-3-yl)oxy)-N-methylacetamide] | ++ (50% < Ymin ≤ 70%)
11 | CNC(=O)COc1cc2cc(Nc3nc(NC[C@H]4CCCN(c5ccc6c(C7CCC(=O)NC7=O)nn(C)c6c5)C4)ncc3Cl)ccc2n(C)c1=O (stereo partly drawn) [Compound 295a, 2-((6-((5-chloro-2-((((3R)-1-(3-(2,6-dioxopiperidin-3-yl)-1-methyl-1H-indazol-6-yl)piperidin-3-yl)methyl)amino)pyrimidin-4-yl)amino)-1-methyl-2-oxo-1,2-dihydroquinolin-3-yl)oxy)-N-methylacetamide] | ++ (50% < Ymin ≤ 70%)
12 | CNC(=O)COc1cc2cc(Nc3nc(N4CCN(C[C@@H]5CCN(c6cccc7c(C8CCC(=O)NC8=O)nn(C)c67)C5)CC4)ncc3Cl)ccc2n(C)c1=O (stereo partly drawn) [Compound 305b, 2-((6-((5-chloro-2-(4-(((3S)-1-(3-(2,6-dioxopiperidin-3-yl)-1-methyl-1H-indazol-7-yl)pyrrolidin-3-yl)methyl)piperazin-1-yl)pyrimidin-4-yl)amino)-1-methyl-2-oxo-1,2-dihydroquinolin-3-yl)oxy)-N-methylacetamide] | +++ (25% < Ymin ≤ 50%)
13 | CNC(=O)COc1cc2cc(Nc3nc(N4CCC(CNC(=O)c5cccc(C6CCC(=O)NC6=O)c5)CC4)ncc3Cl)ccc2n(C)c1=O (stereo not shown) [Compound 105, N-((1-(5-chloro-4-((1-methyl-3-(2-(methylamino)-2-oxoethoxy)-2-oxo-1,2-dihydroquinolin-6-yl)amino)pyrimidin-2-yl)piperidin-4-yl)methyl)-3-(2,6-dioxopiperidin-3-yl)benzamide] | ++ (50% < Ymin ≤ 70%)
14 | CNC(=O)COc1cc2cc(Nc3nc(NC[C@H]4CC[C@H](Nc5ccc(C6CCC(=O)NC6=O)cc5)CC4)ncc3Cl)ccc2n(C)c1=O (stereo partly shown) [Compound 277a, 2-((6-((5-chloro-2-((((1r,4r)-4-((4-(2,6-dioxopiperidin-3-yl)phenyl)amino)cyclohexyl)methyl)amino)pyrimidin-4-yl)amino)-1-methyl-2-oxo-1,2-dihydroquinolin-3-yl)oxy)-N-methylacetamide] | + (Ymin > 70%)
15 | CNC(=O)COc1cc2cc(Nc3nc(N4CCC[C@@H](CNc5cccc(C6CCC(=O)NC6=O)c5)C4)ncc3Cl)ccc2n(C)c1=O (stereo partly drawn) [Compound 275b, 2-((6-((5-chloro-2-((3S)-3-(((3-(2,6-dioxopiperidin-3-yl)phenyl)amino)methyl)piperidin-1-yl)pyrimidin-4-yl)amino)-1-methyl-2-oxo-1,2-dihydroquinolin-3-yl)oxy)-N-methylacetamide] | ++ (50% < Ymin ≤ 70%)
16 | CNC(=O)COc1cc2cc(Nc3nc(N4CCN([C@@H](C)C5CCN(c6cccc7c(C8CCC(=O)NC8=O)nn(C)c67)CC5)CC4)ncc3Cl)ccc2n(C)c1=O (single isomer, unassigned) [Compound 307a] | ++++ (Ymin ≤ 25%)
17 | CNC(=O)COc1cc2cc(Nc3nc(N4C5CCC4CN(CC4CCN(c6cccc7c(C8CCC(=O)NC8=O)nn(C)c67)CC4)C5)ncc3Cl)ccc2n(C)c1=O (stereo not shown) [Compound 325, 2-((6-((5-chloro-2-(3-((1-(3-(2,6-dioxopiperidin-3-yl)-1-methyl-1H-indazol-7-yl)piperidin-4-yl)methyl)-3,8-diazabicyclo[3.2.1]octan-8-yl)pyrimidin-4-yl)amino)-1-methyl-2-oxo-1,2-dihydroquinolin-3-yl)oxy)-N-methylacetamide] | +++ (25% < Ymin ≤ 50%)
18 | CNC(=O)COc1cc2cc(Nc3nc(N4CCC[C@H](CCNc5cccc6c(C7CCC(=O)NC7=O)nn(C)c56)C4)ncc3Cl)ccc2n(C)c1=O (single isomer, unassigned) [Compound 294b] | ++ (50% < Ymin ≤ 70%)
19 | CNC(=O)COc1cc2cc(Nc3nc(N4CCC[C@@H](CCNc5ccc6c(C7CCC(=O)NC7=O)nn(C)c6c5)C4)ncc3Cl)ccc2n(C)c1=O (single isomer, unassigned) [Compound 290b] | +++ (25% < Ymin ≤ 50%)
